# Assay results reported in ChEMBL document CHEMBL1201862, “PubChem BioAssay data set” (2004).
#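 48-hour exposure; five concentrations; linearly interpolated endpoints. At the GI50, growth is halved.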 Active and inactive are the calls of the source. Cut-off read from the data, not from the text of the source: active = GI50 up to about 1.1 µM and inactive = higher.
# Tests used:
# Experiment in all cases: NCI-60 cell line screen, 48 h
# [1] = tested on: OVCAR-3
# [2] = tested on: RPMI-8226
# [3] = tested on: OVCAR-4
# [4] = tested on: IGROV-1
# [5] = tested on: NCI-H226
# [6] = tested on: M19-MEL
# [7] = tested on: LXFL 529
# [8] = tested on: U-251
# [9] = tested on: RXF 631
# [10] = tested on: CAKI-1
# [11] = tested on: Malme-3M
# [12] = tested on: HOP-62
# [13] = tested on: DLD-1
# [14] = tested on: HOP-92
# [15] = tested on: SW-620
# [16] = tested on: COLO 205
# [17] = tested on: ACHN
# [18] = tested on: NCI-H460
# [19] = tested on: SK-OV-3
# [20] = tested on: HCC 2998
# [21] = tested on: CCRF-CEM
# [22] = tested on: K562
# [23] = tested on: UO-31
# [24] = tested on: SK-MEL-5
# [25] = tested on: SK-MEL-28
# [26] = tested on: NCI-H23
# [27] = tested on: M14
# [28] = tested on: SR
# [29] = tested on: DMS-114
# [30] = tested on: 786-0
# [31] = tested on: OVCAR-8
# [32] = tested on: TK-10
# [33] = tested on: A498
# [34] = tested on: HL-60
# [35] = tested on: OVCAR-5
# [36] = tested on: SN12C
# [37] = tested on: SF-295
# [38] = tested on: HCT-116
# [39] = tested on: HOP-18
# [40] = tested on: SNB-19
# [41] = tested on: DMS-273
# [42] = tested on: A549
# [43] = tested on: UACC-257
# [44] = tested on: KM-20L2
# [45] = tested on: SF-268
# [46] = tested on: HT-29
# [47] = tested on: HCT-15
# [48] = tested on: UACC-62
# [49] = tested on: MOLT-4
# [50] = tested on: LOX IMVI
# [51] = tested on: RXF 393
# [52] = tested on: SNB-78
# [53] = tested on: SNB-75
# [54] = tested on: KM12
# [55] = tested on: EKVX
# [56] = tested on: SF-539
# [57] = tested on: NCI-H522
# [58] = tested on: SK-MEL-2
smiles,measurement,setting,value
COC(=O)C(Br)C1CCc2ccccc21 (centres undefined),GI50,[1],63.1 µM (inactive)
same,GI50,[2],71.9 µM (inactive)
same,GI50,[3],53.2 µM (inactive)
same,GI50,[4],> 100 µM (inactive)
same,GI50,[5],46.3 µM (inactive)
same,GI50,[6],> 100 µM (inactive)
same,GI50,[7],> 100 µM (inactive)
same,GI50,[8],> 100 µM (inactive)
same,GI50,[9],> 100 µM (inactive)
same,GI50,[10],> 100 µM (inactive)
same,GI50,[11],> 100 µM (inactive)
same,GI50,[12],> 100 µM (inactive)
same,GI50,[13],> 100 µM (inactive)
same,GI50,[14],> 100 µM (inactive)
same,GI50,[15],> 100 µM (inactive)
same,GI50,[16],> 100 µM (inactive)
same,GI50,[17],> 100 µM (inactive)
same,GI50,[18],> 100 µM (inactive)
same,GI50,[19],> 100 µM (inactive)
same,GI50,[20],> 100 µM (inactive)
same,GI50,[21],48.1 µM (inactive)
same,GI50,[22],52.7 µM (inactive)
same,GI50,[23],> 100 µM (inactive)
same,GI50,[24],> 100 µM (inactive)
same,GI50,[25],> 100 µM (inactive)
same,GI50,[26],> 100 µM (inactive)
same,GI50,[27],> 100 µM (inactive)
same,GI50,[28],42.8 µM (inactive)
same,GI50,[29],> 100 µM (inactive)
same,GI50,[30],> 100 µM (inactive)
same,GI50,[31],> 100 µM (inactive)
same,GI50,[32],> 100 µM (inactive)
same,GI50,[33],> 100 µM (inactive)
same,GI50,[34],26.5 µM (inactive)
same,GI50,[35],> 100 µM (inactive)
same,GI50,[36],> 100 µM (inactive)
same,GI50,[37],52.6 µM (inactive)
same,GI50,[38],> 100 µM (inactive)
same,GI50,[39],65.3 µM (inactive)
same,GI50,[40],82.2 µM (inactive)
same,GI50,[41],> 100 µM (inactive)
same,GI50,[42],> 100 µM (inactive)
same,GI50,[43],> 100 µM (inactive)
same,GI50,[44],> 100 µM (inactive)
same,GI50,[45],> 100 µM (inactive)
same,GI50,[46],> 100 µM (inactive)
same,GI50,[47],> 100 µM
same,GI50,[48],> 100 µM (inactive)
same,GI50,[49],68.7 µM (inactive)
same,GI50,[50],> 100 µM (inactive)
COC(=O)C1CCc2nnc(-c3cccnc3)n21 (centres undefined),GI50,[51],> 100 µM (inactive)
same,GI50,[1],> 100 µM (inactive)
same,GI50,[2],> 100 µM (inactive)
same,GI50,[3],> 100 µM (inactive)
same,GI50,[4],> 100 µM (inactive)
same,GI50,[5],> 100 µM (inactive)
same,GI50,[6],> 100 µM (inactive)
same,GI50,[7],> 100 µM (inactive)
same,GI50,[8],> 100 µM (inactive)
same,GI50,[52],> 100 µM (inactive)
same,GI50,[53],> 100 µM (inactive)
same,GI50,[9],> 100 µM (inactive)
same,GI50,[10],> 100 µM (inactive)
same,GI50,[11],> 100 µM (inactive)
same,GI50,[12],> 100 µM (inactive)
same,GI50,[13],> 100 µM (inactive)
same,GI50,[54],> 100 µM (inactive)
same,GI50,[15],> 100 µM (inactive)
same,GI50,[16],> 100 µM (inactive)
same,GI50,[17],> 100 µM (inactive)
same,GI50,[18],> 100 µM (inactive)
same,GI50,[19],> 100 µM (inactive)
same,GI50,[20],> 100 µM (inactive)
same,GI50,[21],> 100 µM (inactive)
same,GI50,[22],> 100 µM (inactive)
same,GI50,[23],> 100 µM (inactive)
same,GI50,[24],> 100 µM (inactive)
same,GI50,[25],> 100 µM (inactive)
same,GI50,[27],> 100 µM (inactive)
same,GI50,[28],> 100 µM (inactive)
same,GI50,[29],> 100 µM (inactive)
same,GI50,[30],> 100 µM (inactive)
same,GI50,[31],> 100 µM (inactive)
same,GI50,[32],> 100 µM (inactive)
same,GI50,[33],> 100 µM (inactive)
same,GI50,[34],> 100 µM (inactive)
same,GI50,[36],> 100 µM (inactive)
same,GI50,[55],> 100 µM (inactive)
same,GI50,[38],> 100 µM (inactive)
same,GI50,[56],> 100 µM (inactive)
same,GI50,[57],> 100 µM (inactive)
same,GI50,[39],> 100 µM (inactive)
same,GI50,[40],> 100 µM (inactive)
same,GI50,[41],> 100 µM (inactive)
same,GI50,[42],> 100 µM (inactive)
same,GI50,[43],> 100 µM (inactive)
same,GI50,[44],> 100 µM (inactive)
same,GI50,[45],> 100 µM (inactive)
same,GI50,[47],> 100 µM
same,GI50,[48],> 100 µM (inactive)
same,GI50,[49],> 100 µM (inactive)
same,GI50,[58],> 100 µM (inactive)
Cc1ccc(NC(=O)CCCC(=O)CC(=O)c2ccc(Br)cc2)cc1,GI50,[51],> 100 µM (inactive)
same,GI50,[1],> 100 µM (inactive)
same,GI50,[2],> 100 µM (inactive)
same,GI50,[3],> 100 µM (inactive)
same,GI50,[4],> 100 µM (inactive)
same,GI50,[5],> 100 µM (inactive)
same,GI50,[6],> 100 µM (inactive)
same,GI50,[7],> 100 µM (inactive)
same,GI50,[8],> 100 µM (inactive)
same,GI50,[52],> 100 µM (inactive)
same,GI50,[53],34.4 µM (inactive)
same,GI50,[9],> 100 µM (inactive)
same,GI50,[10],> 100 µM (inactive)
same,GI50,[11],> 100 µM (inactive)
same,GI50,[12],> 100 µM (inactive)
same,GI50,[13],> 100 µM (inactive)
same,GI50,[54],> 100 µM (inactive)
same,GI50,[14],> 100 µM (inactive)
same,GI50,[15],> 100 µM (inactive)
same,GI50,[16],> 100 µM (inactive)
same,GI50,[17],> 100 µM (inactive)
same,GI50,[18],> 100 µM (inactive)
same,GI50,[19],> 100 µM (inactive)
same,GI50,[20],> 100 µM (inactive)
same,GI50,[21],> 100 µM (inactive)
same,GI50,[22],> 100 µM (inactive)
same,GI50,[23],> 100 µM (inactive)
same,GI50,[24],> 100 µM (inactive)
same,GI50,[25],> 100 µM (inactive)
same,GI50,[26],> 100 µM (inactive)
same,GI50,[27],> 100 µM (inactive)
same,GI50,[28],> 100 µM (inactive)
same,GI50,[29],> 100 µM (inactive)
same,GI50,[30],> 100 µM (inactive)
same,GI50,[31],> 100 µM (inactive)
same,GI50,[32],> 100 µM (inactive)
same,GI50,[33],> 100 µM (inactive)
same,GI50,[35],> 100 µM (inactive)
same,GI50,[36],> 100 µM (inactive)
same,GI50,[37],> 100 µM (inactive)
same,GI50,[55],> 100 µM (inactive)
same,GI50,[38],> 100 µM (inactive)
same,GI50,[56],> 100 µM (inactive)
same,GI50,[57],> 100 µM (inactive)
same,GI50,[39],> 100 µM (inactive)
same,GI50,[40],> 100 µM (inactive)
same,GI50,[41],> 100 µM (inactive)
same,GI50,[42],> 100 µM (inactive)
same,GI50,[43],> 100 µM (inactive)
same,GI50,[44],> 100 µM (inactive)
same,GI50,[45],> 100 µM (inactive)
same,GI50,[46],> 100 µM (inactive)
same,GI50,[47],> 100 µM
same,GI50,[48],> 100 µM (inactive)
same,GI50,[49],> 100 µM (inactive)
same,GI50,[50],> 100 µM (inactive)
same,GI50,[58],> 100 µM (inactive)
